Consider nine compounds from paper PMC11156913, “New sulfonamide-based glycosides incorporated 1,2,3-triazole as cytotoxic agents through VEGFR-2 and carbonic anhydrase inhibitory activity” (Scientific Reports, 2024).

Like-named read-outs stand apart in the source and are kept apart here.

The test system of data set [1] is lung A-549 cancer cell line. As to the kind of experiment: In vitro cytotoxic activity (MTT assay), A-549. The note with it: Homo sapiens; for inhibition at 100 µM: A549, 48 h, read-out: % inhibition ± SD A-549. Background: Tetrazolium dyes change colour on reduction, which living cells bring about.
Description: Exponentially, cells were placed in 10^4 cells/ well for 24 h, and then add fresh medium which containing different concentration of the tested sample. Serial two-fold dilution of the tested sample were added using a multichannel pipette. […] Rinse the wells using water until no stain. After that, add 30% glacial acetic acid to all wells with shaking plates on Microplate reader (TECAN, Inc.) to measure the absorbance, using a test wavelength of 490 nm. Besides, compare the treated samples with the control cell.
The subject of data set [2] is colorectal HCT-116 cancer cell line. In words: In vitro cytotoxic activity (MTT assay), HCT-116. Type of data set: cell-based, human. To be noted: for inhibition at 100 µM: read-out: % inhibition ± SD HCT-116. From the text: (§1) The supplemental file contained extra details.
In data set [3] the test system is liver HepG-2 cancer cell line. In words: In vitro cytotoxic activity (MTT assay), HepG-2. To be noted: for inhibition at 100 µM / IC50: Homo sapiens; for inhibition at 100 µM: HepG2, 48 h, read-out: % inhibition ± SD HepG-2; for IC50: HepG2, read-out: IC50 (mean ± SD) HepG-2.
Excerpt: as §1

For data set [4], the system named is breast MCF-7 cancer cell line. As to the kind of experiment: In vitro cytotoxic activity (MTT assay), MCF-7. In kind it is cell-based, human. The note with it: for inhibition at 100 µM / IC50: Homo sapiens; for inhibition at 100 µM: read-out: % inhibition ± SD MCF-7; for IC50: MCF-7 cells, MTT, read-out: IC50 (mean ± SD) MCF-7.
Excerpt: as §1

The mark [5] stands for this setting: Homo sapiens, HCT-116, 100 µM, 48 h.

`CCCCNS(=O)(=O)c1ccc(-n2cc(CO[C@@H]3O[C@H](COC(C)=O)[C@H](OC(C)=O)[C@H](OC(C)=O)[C@H]3OC(C)=O)nn2)cc1` [Compound 6, N-butyl-4-(4-([2,3,4,6-tetra-O-acetyl-β-D-galactopyranosyl]oxymethyl)-1H-1,2,3-triazol-1-yl)benzenesulfonamide]: the inhibition at 100 µM in data set [1] is 32.53 ± 0.15%; in data set [2] (setting [5]), 0%; in data set [3], 8.93 ± 0.74%; in data set [4] (MCF7, 100 µM, 48 h), 37.5 ± 0.52%.

Compound `O=S(=O)(NC1CCCCC1)c1ccc(-n2cc(CO[C@@H]3O[C@H](CO)[C@H](O)[C@H](O)[C@H]3O)nn2)cc1` [Compound 11, N-cyclohexyl-4-(4-([β-D-galactopyranosyl]oxymethyl)-1H-1,2,3-triazol-1-yl)benzenesulfonamide] registered a melting point of 118 to 120 °C. The inhibition at 100 µM in data set [1] was 30.1 ± 0.62%. Moreover, the inhibition at 100 µM in data set [2] (setting [5]) worked out at 39 ± 0.96%. Further, the “percentage cytotoxicity on HepG-2” value in data set [3] (12.5 µM) is recorded as 44.80±0.50%. In addition, the “percentage cytotoxicity on HepG-2” value in data set [3] (25 µM) is 57.70±0.87%. For the same compound, in data set [3] (50 µM), the “percentage cytotoxicity on HepG-2” value came to 62.70±0.36%. Further, the “percentage cytotoxicity on HepG-2” value in data set [3] (100 µM) is recorded as 73.85±1.06%. The IC50 in data set [3] amounted to 16.9 ± 0.09 µM. The inhibition at 100 µM in data set [4] (MCF7, 100 µM, 48 h) amounted to 20.8 ± 0.79%.

With `CCCCNS(=O)(=O)c1ccc(-n2cc(CO[C@@H]3O[C@H](CO)[C@H](O)[C@H](O)[C@H]3O)nn2)cc1` [Compound 10, N-butyl-4-(4-([β-D-Galactopyranosyl]oxymethyl)-1H-1,2,3-triazol-1-yl)benzenesulfonamide], the melting point is 100 to 102 °C. Besides, in data set [1], the inhibition at 100 µM was 32 ± 0.84%. The inhibition at 100 µM in data set [2] (setting [5]) was determined as 8.91 ± 2.7%. Besides, the inhibition at 100 µM in data set [3] came out at 35.9 ± 0.42%. In addition, the inhibition at 100 µM in data set [4] (MCF7, 100 µM, 48 h) amounted to 25.4 ± 0.91%.

For `CCN(CC)CCNC(=O)c1c(C)[nH]c(/C=C2\C(=O)Nc3ccc(F)cc32)c1C` [Sunitinib, reference compound], the IC50 in data set [1] (A549, read-out: IC50 (mean ± SD) A-549) turned out to be 10.1 ± 0.5 µM.

For the compound `CCCCNS(=O)(=O)c1ccc(N=[N+]=[N-])cc1` [Compound 3, 4-Azido-N-butylbenzenesulfonamide], the melting point was in the range of 47 to 49 °C. Further, in data set [1], the inhibition at 100 µM was 20.47 ± 0.15%. In addition, the inhibition at 100 µM in data set [2] (setting [5]) came out at 16.7 ± 0.6%. Moreover, the “percentage cytotoxicity on HepG-2” value in data set [3] (12.5 µM) was found to be 3.76±5.32%. In addition, in data set [3] (25 µM), the “percentage cytotoxicity on HepG-2” value came to 19.08±1.88%. In addition, the “percentage cytotoxicity on HepG-2” value in data set [3] (50 µM) is on record as 49.40±1.91%. Further, the “percentage cytotoxicity on HepG-2” value in data set [3] (100 µM) was found to be 71.40±0.91%. For the same compound, the IC50 in data set [3] was 57.6 ± 12.2 µM. For the same compound, the inhibition at 100 µM in data set [4] (MCF7, 100 µM, 48 h) was determined as 51.97 ± 0.29%.

The compound `CCCCNS(=O)(=O)c1ccc(-n2cc(CO[C@@H]3OC[C@@H](O)[C@H](O)[C@H]3O)nn2)cc1` [Compound 12, N-butyl-4-(4-([β-D-Xylopyranosyl]oxymethyl)-1H-1,2,3-triazol-1-yl)benzenesulfonamide] gave a melting point of 150 to 152 °C. Moreover, in data set [1], the inhibition at 100 µM is 17.8 ± 0.95%. For the same compound, the inhibition at 100 µM in data set [2] (Homo sapiens, HCT-116, 48 h) is 0%. For the same compound, in data set [3] (12.5 µM), the “percentage cytotoxicity on HepG-2” value came out at 33.95±0.33%. In data set [3] (25 µM), the “percentage cytotoxicity on HepG-2” value is on record as 44.70±1.13%. In data set [3] (50 µM), the “percentage cytotoxicity on HepG-2” value was determined as 55.95±0.44%. In addition, the “percentage cytotoxicity on HepG-2” value in data set [3] (100 µM) turned out to be 62.86±1.19%. The IC50 in data set [3] is 36.44 ± 0.12 µM. In data set [4] (MCF7, 48 h), the inhibition at 100 µM worked out at 41.4 ± 0.91%.

Turning to `O=S(=O)(NC1CCCCC1)c1ccc(-n2cc(CO[C@@H]3OC[C@@H](O)[C@H](O)[C@H]3O)nn2)cc1` [Compound 13, N-cyclohexyl-4-(4-([β-D-Xylopyranosyl]oxymethyl)-1H-1,2,3-triazol-1-yl)benzenesulfonamide], the melting point lay within 160 to 162 °C. Moreover, the inhibition at 100 µM in data set [1] came out at 54.6 ± 0.97%. Moreover, in data set [2] (12.5 µM), the “percentage cytotoxicity on HCT-116” value turned out to be 11.00±0.65%. For the same compound, in data set [2] (25 µM), the “percentage cytotoxicity on HCT-116” value turned out to be 28.51±0.69%. The “percentage cytotoxicity on HCT-116” value in data set [2] (50 µM) came to 47.00±0.79%. For the same compound, in data set [2] (100 µM), the “percentage cytotoxicity on HCT-116” value came to 70.10±1.05%. In addition, in data set [2] (setting [5]), the inhibition at 100 µM was determined as 70.1 ± 1.05%. Further, the half-maximal inhibitory concentration (IC50) in data set [2] (Homo sapiens, HCT-116 cells, MTT, read-out: IC50 (mean ± SD) HCT-116) worked out at 53.1 ± 0.69 µM. The “percentage cytotoxicity on HepG-2” value in data set [3] (12.5 µM) was determined as 43.30±0.66%. Besides, the “percentage cytotoxicity on HepG-2” value in data set [3] (25 µM) is recorded as 38.80±0.40%. The “percentage cytotoxicity on HepG-2” value in data set [3] (50 µM) came out at 56.20±1.29%. In addition, in data set [3] (100 µM), the “percentage cytotoxicity on HepG-2” value worked out at 75.10±0.12%. Besides, the half-maximal inhibitory concentration (IC50) in data set [3] came out at 30.01 ± 0.06 µM. The “percentage cytotoxicity on MCF-7” value in data set [4] (12.5 µM) was 34.87±5.91%. Besides, the “percentage cytotoxicity on MCF-7” value in data set [4] (25 µM) is 48.07±4.31%. The “percentage cytotoxicity on MCF-7” value in data set [4] (50 µM) was determined as 54.73±1.88%. Further, the “percentage cytotoxicity on MCF-7” value in data set [4] (100 µM) was found to be 71.43±2.03%. For the same compound, the inhibition at 100 µM in data set [4] (MCF7, 100 µM, 48 h) was 71.43 ± 0.03%. In addition, in data set [4] (MCF7), the half-inhibitory concentration (IC50) was found to be 30.83 ± 0.2 µM.

Regarding `COc1cccc2c1C(=O)c1c(O)c3c(c(O)c1C2=O)C[C@@](O)(C(=O)CO)C[C@@H]3O[C@H]1C[C@H](N)[C@H](O)[C@H](C)O1` [Doxorubicin, reference compound], the inhibition at 100 µM is 100 ± 0.2% in data set [1]; 100 ± 0.25% in data set [2] (setting [5]); 100 ± 0.08% in data set [4] (MCF7, 100 µM, 48 h). The half-maximal inhibitory concentration (IC50) in data set [3] came to 13.8 ± 0.45 µM; in data set [4] (MCF7), 17.4 ± 0.46 µM.

For the compound `CCCCNS(=O)(=O)c1ccc(-n2cc(CO[C@@H]3OC[C@@H](OC(C)=O)[C@H](OC(C)=O)[C@H]3OC(C)=O)nn2)cc1` [Compound 8, N-butyl-4-(4-([2,3,4-tri-O-acetyl-β-D-xylopyranosyl]oxymethyl)-1H-1,2,3-triazol-1-yl)benzenesulfonamide], the inhibition at 100 µM in data set [1] is 58.1 ± 0.56%; in data set [2] (setting [5]), 41.05 ± 0.18%; in data set [4] (MCF7, 100 µM, 48 h), 66 ± 0.69%. Further, the “percentage cytotoxicity on HepG-2” value in data set [3] (12.5 µM) stood at 23.15±0.43%; in data set [3] (25 µM) it was 32.80±2.12%; in data set [3] (50 µM) it was 50.73±1.45%; in data set [3] (100 µM), 69.17±0.21%. Also, the results for the IC50 in data set [3] and in data set [4] (MCF7) were 47 ± 0.51 µM and 46.49 ± 0.42 µM, respectively. Besides, the “percentage cytotoxicity on MCF-7” value in data set [4] (12.5 µM) stood at 29.56±1.66%; in data set [4] (25 µM) it was 36.13±2.06%; in data set [4] (50 µM), 49.80±0.41%; in data set [4] (100 µM), 66.04±0.69%.

As a reminder, the inhibition is the change of the read-out against control, counted positive when it falls. Usually melting point stands for the temperature, or range, at which the solid turns liquid. Usually IC50 stands for the concentration needed to halve the response being measured.
